{"source": "the NIST ThermoML archive (doi:10.1021/je301084m)", "assay": "wn = mass fraction of the nth substance listed", "conditions": "101 kPa, Liquid; for mass density: Pycnometric method; for viscosity: Capillary tube (Ostwald / Ubbelohde) method", "note": "Numbers after ± are expanded uncertainties."}
{"smiles": "O=[N+]([O-])[O-].[Li+]", "note": "[lithium nitrate] + O", "values": [{"measurement": "mass density", "setting": "343.15 K, w1 = 0.5", "value": "1331 ± 2", "unit": "kg/m3"}, {"measurement": "mass density", "setting": "343.15 K, w1 = 0.55", "value": "1376 ± 2", "unit": "kg/m3"}, {"measurement": "mass density", "setting": "343.15 K, w1 = 0.6", "value": "1424 ± 2", "unit": "kg/m3"}, {"measurement": "mass density", "setting": "343.15 K, w1 = 0.65", "value": "1486 ± 2", "unit": "kg/m3"}, {"measurement": "viscosity", "setting": "353.15 K, w1 = 0.3", "value": "0.731 ± 0.04", "unit": "mPa·s"}, {"measurement": "viscosity", "setting": "353.15 K, w1 = 0.35", "value": "0.864 ± 0.04", "unit": "mPa·s"}, {"measurement": "viscosity", "setting": "353.15 K, w1 = 0.4", "value": "1.041 ± 0.041", "unit": "mPa·s"}, {"measurement": "viscosity", "setting": "353.15 K, w1 = 0.45", "value": "1.302 ± 0.041", "unit": "mPa·s"}, {"measurement": "viscosity", "setting": "353.15 K, w1 = 0.5", "value": "1.616 ± 0.041", "unit": "mPa·s"}, {"measurement": "viscosity", "setting": "353.15 K, w1 = 0.55", "value": "2.158 ± 0.043", "unit": "mPa·s"}, {"measurement": "viscosity", "setting": "353.15 K, w1 = 0.6", "value": "2.955 ± 0.045", "unit": "mPa·s"}, {"measurement": "viscosity", "setting": "353.15 K, w1 = 0.65", "value": "4.02 ± 0.048", "unit": "mPa·s"}, {"measurement": "mass density", "setting": "353.15 K, w1 = 0.3", "value": "1159 ± 2", "unit": "kg/m3"}, {"measurement": "mass density", "setting": "353.15 K, w1 = 0.35", "value": "1196 ± 2", "unit": "kg/m3"}, {"measurement": "mass density", "setting": "353.15 K, w1 = 0.4", "value": "1236 ± 2", "unit": "kg/m3"}, {"measurement": "mass density", "setting": "353.15 K, w1 = 0.45", "value": "1279 ± 2", "unit": "kg/m3"}, {"measurement": "mass density", "setting": "353.15 K, w1 = 0.5", "value": "1324 ± 2", "unit": "kg/m3"}, {"measurement": "mass density", "setting": "353.15 K, w1 = 0.55", "value": "1369 ± 2", "unit": "kg/m3"}, {"measurement": "mass density", "setting": "353.15 K, w1 = 0.6", "value": "1416 ± 2", "unit": "kg/m3"}, {"measurement": "mass density", "setting": "353.15 K, w1 = 0.65", "value": "1479 ± 2", "unit": "kg/m3"}, {"measurement": "viscosity", "setting": "363.15 K, w1 = 0.3", "value": "0.65 ± 0.04", "unit": "mPa·s"}, {"measurement": "viscosity", "setting": "363.15 K, w1 = 0.35", "value": "0.773 ± 0.04", "unit": "mPa·s"}, {"measurement": "viscosity", "setting": "363.15 K, w1 = 0.4", "value": "0.927 ± 0.04", "unit": "mPa·s"}, {"measurement": "viscosity", "setting": "363.15 K, w1 = 0.45", "value": "1.149 ± 0.041", "unit": "mPa·s"}, {"measurement": "viscosity", "setting": "363.15 K, w1 = 0.5", "value": "1.466 ± 0.041", "unit": "mPa·s"}, {"measurement": "viscosity", "setting": "363.15 K, w1 = 0.55", "value": "1.882 ± 0.042", "unit": "mPa·s"}, {"measurement": "viscosity", "setting": "363.15 K, w1 = 0.6", "value": "2.564 ± 0.043", "unit": "mPa·s"}, {"measurement": "viscosity", "setting": "363.15 K, w1 = 0.65", "value": "3.394 ± 0.046", "unit": "mPa·s"}, {"measurement": "mass density", "setting": "363.15 K, w1 = 0.3", "value": "1152 ± 2", "unit": "kg/m3"}, {"measurement": "mass density", "setting": "363.15 K, w1 = 0.35", "value": "1189 ± 2", "unit": "kg/m3"}, {"measurement": "mass density", "setting": "363.15 K, w1 = 0.4", "value": "1230 ± 2", "unit": "kg/m3"}, {"measurement": "mass density", "setting": "363.15 K, w1 = 0.45", "value": "1272 ± 2", "unit": "kg/m3"}, {"measurement": "mass density", "setting": "363.15 K, w1 = 0.5", "value": "1317 ± 2", "unit": "kg/m3"}, {"measurement": "mass density", "setting": "363.15 K, w1 = 0.55", "value": "1361 ± 2", "unit": "kg/m3"}, {"measurement": "mass density", "setting": "363.15 K, w1 = 0.6", "value": "1408 ± 2", "unit": "kg/m3"}, {"measurement": "mass density", "setting": "363.15 K, w1 = 0.65", "value": "1472 ± 2", "unit": "kg/m3"}, {"measurement": "viscosity", "setting": "373.15 K, w1 = 0.3", "value": "0.586 ± 0.04", "unit": "mPa·s"}, {"measurement": "viscosity", "setting": "373.15 K, w1 = 0.35", "value": "0.7 ± 0.04", "unit": "mPa·s"}, {"measurement": "viscosity", "setting": "373.15 K, w1 = 0.4", "value": "0.837 ± 0.04", "unit": "mPa·s"}, {"measurement": "viscosity", "setting": "373.15 K, w1 = 0.45", "value": "1.034 ± 0.041", "unit": "mPa·s"}, {"measurement": "viscosity", "setting": "373.15 K, w1 = 0.5", "value": "1.306 ± 0.041", "unit": "mPa·s"}, {"measurement": "viscosity", "setting": "373.15 K, w1 = 0.55", "value": "1.693 ± 0.041", "unit": "mPa·s"}, {"measurement": "viscosity", "setting": "373.15 K, w1 = 0.6", "value": "2.248 ± 0.043", "unit": "mPa·s"}, {"measurement": "viscosity", "setting": "373.15 K, w1 = 0.65", "value": "2.953 ± 0.044", "unit": "mPa·s"}, {"measurement": "mass density", "setting": "373.15 K, w1 = 0.3", "value": "1144 ± 2", "unit": "kg/m3"}, {"measurement": "mass density", "setting": "373.15 K, w1 = 0.35", "value": "1181 ± 2", "unit": "kg/m3"}, {"measurement": "mass density", "setting": "373.15 K, w1 = 0.4", "value": "1222 ± 2", "unit": "kg/m3"}, {"measurement": "mass density", "setting": "373.15 K, w1 = 0.45", "value": "1265 ± 2", "unit": "kg/m3"}, {"measurement": "mass density", "setting": "373.15 K, w1 = 0.5", "value": "1309 ± 2", "unit": "kg/m3"}, {"measurement": "mass density", "setting": "373.15 K, w1 = 0.55", "value": "1353 ± 2", "unit": "kg/m3"}, {"measurement": "mass density", "setting": "373.15 K, w1 = 0.6", "value": "1400 ± 2", "unit": "kg/m3"}, {"measurement": "mass density", "setting": "373.15 K, w1 = 0.65", "value": "1464 ± 2", "unit": "kg/m3"}, {"measurement": "viscosity", "setting": "383.15 K, w1 = 0.4", "value": "0.763 ± 0.04", "unit": "mPa·s"}, {"measurement": "viscosity", "setting": "383.15 K, w1 = 0.45", "value": "0.938 ± 0.04", "unit": "mPa·s"}, {"measurement": "viscosity", "setting": "383.15 K, w1 = 0.5", "value": "1.175 ± 0.041", "unit": "mPa·s"}, {"measurement": "viscosity", "setting": "383.15 K, w1 = 0.55", "value": "1.505 ± 0.041", "unit": "mPa·s"}, {"measurement": "viscosity", "setting": "383.15 K, w1 = 0.6", "value": "1.993 ± 0.042", "unit": "mPa·s"}, {"measurement": "viscosity", "setting": "383.15 K, w1 = 0.65", "value": "2.615 ± 0.043", "unit": "mPa·s"}, {"measurement": "mass density", "setting": "383.15 K, w1 = 0.4", "value": "1213 ± 2", "unit": "kg/m3"}, {"measurement": "mass density", "setting": "383.15 K, w1 = 0.45", "value": "1258 ± 2", "unit": "kg/m3"}, {"measurement": "mass density", "setting": "383.15 K, w1 = 0.5", "value": "1301 ± 2", "unit": "kg/m3"}, {"measurement": "mass density", "setting": "383.15 K, w1 = 0.55", "value": "1346 ± 2", "unit": "kg/m3"}, {"measurement": "mass density", "setting": "383.15 K, w1 = 0.6", "value": "1393 ± 2", "unit": "kg/m3"}, {"measurement": "mass density", "setting": "383.15 K, w1 = 0.65", "value": "1456 ± 2", "unit": "kg/m3"}, {"measurement": "viscosity", "setting": "393.15 K, w1 = 0.55", "value": "1.371 ± 0.041", "unit": "mPa·s"}, {"measurement": "viscosity", "setting": "393.15 K, w1 = 0.6", "value": "1.785 ± 0.042", "unit": "mPa·s"}, {"measurement": "viscosity", "setting": "393.15 K, w1 = 0.65", "value": "2.307 ± 0.042", "unit": "mPa·s"}, {"measurement": "mass density", "setting": "393.15 K, w1 = 0.5", "value": "1294 ± 2", "unit": "kg/m3"}, {"measurement": "mass density", "setting": "393.15 K, w1 = 0.55", "value": "1338 ± 2", "unit": "kg/m3"}, {"measurement": "mass density", "setting": "393.15 K, w1 = 0.6", "value": "1385 ± 2", "unit": "kg/m3"}, {"measurement": "mass density", "setting": "393.15 K, w1 = 0.65", "value": "1448 ± 2", "unit": "kg/m3"}, {"measurement": "viscosity", "setting": "403.15 K, w1 = 0.6", "value": "1.625 ± 0.041", "unit": "mPa·s"}, {"measurement": "viscosity", "setting": "403.15 K, w1 = 0.65", "value": "2.095 ± 0.042", "unit": "mPa·s"}, {"measurement": "mass density", "setting": "403.15 K, w1 = 0.6", "value": "1377 ± 2", "unit": "kg/m3"}, {"measurement": "mass density", "setting": "403.15 K, w1 = 0.65", "value": "1440 ± 2", "unit": "kg/m3"}, {"measurement": "viscosity", "setting": "413.15 K, w1 = 0.65", "value": "1.923 ± 0.042", "unit": "mPa·s"}, {"measurement": "mass density", "setting": "413.15 K, w1 = 0.65", "value": "1430 ± 2", "unit": "kg/m3"}]}
